Data set [1] in a line: collision cross section (TIMS, N2 drift gas) of the primary ion; higher = larger gas-phase ion size.
Data set [2] in a line: reversed-phase LC retention time (C18, 15 min MeOH gradient); higher = more hydrophobic / later elution.
[3] abbreviates: ionization mode: ESI+, ion species: [M+H]+.
Setting [4] is: ionization mode: ESI-, ion species: [M-H]-.

Take `O=C(CCc1ccc(O)cc1)c1c(O)cc(O)cc1O` [Phloretin]: the results for the collision cross section in data set [1] (setting [3]) and in data set [1] (setting [4]) were 163.11 Å² and 163.45 Å², respectively. Further, the entries for the “reversed-phase LC retention time” value in data set [2] (setting [3]) and in data set [2] (setting [4]) were 11.9 min and 10.6 min, respectively.
Consider `O=C(Nc1ccc(F)cc1)c1cccc(Oc2cccc(C(F)(F)F)c2)n1` [Picolinafen], for which the collision cross section in data set [1] (setting [3]) was 189.81 Å²; in data set [1] (setting [4]), 186.89 Å². For the same compound, the “reversed-phase LC retention time” value in data set [2] (setting [3]) amounted to 16.8 min; in data set [2] (setting [4]), 17.2 min.
Consider `CO/C=C(/C(=O)OC)c1ccccc1COc1cccc(C(F)(F)F)n1` [Picoxystrobin], for which, in data set [1] (setting [3]), the collision cross section is 174.95 Å². The “reversed-phase LC retention time” value in data set [2] (setting [3]) was found to be 15.2 min.
Regarding `CC(C)NCC(O)COc1cccc2[nH]ccc12` (stereo unspecified) [Pindolol], the collision cross section in data set [1] (setting [3]) was found to be 159 Å². For the same compound, the “reversed-phase LC retention time” value in data set [2] (setting [3]) was determined as 7.36 min.
On to `CCc1ccc(CCOc2ccc(CC3SC(=O)NC3=O)cc2)nc1` (stereo unspecified) [Pioglitazone], for which the figures for the collision cross section in data set [1] (setting [3]) and in data set [1] (setting [4]) were 179.07 Å² and 176.43 Å², respectively. The “reversed-phase LC retention time” value in data set [2] (setting [3]) is 11.1 min; in data set [2] (setting [4]), 13.3 min.
In the case of `NC(=O)C1(N2CCCCC2)CCN(CCCC(=O)c2ccc(F)cc2)CC1` [Pipamperone], the collision cross section in data set [1] (setting [3]) came to 194.74 Å². Also, the “reversed-phase LC retention time” value in data set [2] (setting [3]) stood at 9.13 min.
In the same order, the values of `O=C(/C=C/C=C/c1ccc2c(c1)OCO2)N1CCCCC1` [Piperine] are 177.09 Å² and 14.6 min.
For the compound `Cc1nc(N(C)C)nc(OC(=O)N(C)C)c1C` [Pirimicarb], the collision cross section in data set [1] (setting [3]) is listed as 156.34 Å². In data set [2] (setting [3]), the “reversed-phase LC retention time” value was found to be 10.5 min.
Consider `CCN(CC)c1nc(C)cc(OP(=S)(OC)OC)n1` [Pirimiphos-methyl], for which the collision cross section in data set [1] (setting [3]) was 167.52 Å². For the same compound, the “reversed-phase LC retention time” value in data set [2] (setting [3]) amounted to 15.7 min.
Turning to `CCC(C)C(=O)OC1CC(O)C=C2C=CC(C)C(CCC(O)CC(O)CC(=O)O)C21` (stereo unspecified) [Pravastatin], the collision cross section in data set [1] (setting [4]) was determined as 203.46 Å². In addition, the “reversed-phase LC retention time” value in data set [2] (setting [4]) stood at 12.1 min.
As for `C[C@]12C=CC(=O)C=C1CC[C@@H]1[C@@H]2[C@@H](O)C[C@@]2(C)[C@H]1CC[C@]2(O)C(=O)CO` [Prednisolone], in data set [1] (setting [4]), the collision cross section was found to be 182.17 Å². Besides, in data set [2] (setting [4]), the “reversed-phase LC retention time” value turned out to be 11.9 min.
`C[C@]12C=CC(=O)C=C1CC[C@@H]1[C@@H]2C(=O)C[C@@]2(C)[C@H]1CC[C@]2(O)C(=O)CO` [Prednisone]: the results for the collision cross section in data set [1] (setting [3]) and in data set [1] (setting [4]) were 185.97 Å² and 184 Å², respectively. Also, the entries for the “reversed-phase LC retention time” value in data set [2] (setting [3]) and in data set [2] (setting [4]) were 11.9 min and 15.2 min, respectively.
Take `CCC1(c2ccccc2)C(=O)NCNC1=O` [Primidone]: the collision cross section in data set [1] (setting [3]) was 148.13 Å². Besides, in data set [2] (setting [3]), the “reversed-phase LC retention time” value is 9.29 min.
The compound `CCCN(CCOc1c(Cl)cc(Cl)cc1Cl)C(=O)n1ccnc1` [Prochloraz] yielded a collision cross section in data set [1] (setting [3]) of 183.61 Å². The “reversed-phase LC retention time” value in data set [2] (setting [3]) was 15.7 min.
As for `CC12CC1(C)C(=O)N(c1cc(Cl)cc(Cl)c1)C2=O` (stereo unspecified) [Procymidone], the collision cross section in data set [1] (setting [4]) amounted to 172.16 Å². In addition, the “reversed-phase LC retention time” value in data set [2] (setting [4]) came out at 15 min.
In data set [1] (setting [3]), `CCCSP(=O)(OCC)Oc1ccc(Br)cc1Cl` (stereo unspecified) [Profenofos] showed a collision cross section of 169.17 Å². Besides, the “reversed-phase LC retention time” value in data set [2] (setting [3]) was found to be 16.6 min.
With `CC(CN1c2ccccc2Sc2ccccc21)N(C)C` (stereo unspecified) [Promethazin], the collision cross section in data set [1] (setting [3]) stood at 164.06 Å². In data set [2] (setting [3]), the “reversed-phase LC retention time” value was determined as 12.3 min.
In data set [1] (setting [3]), `CC(C)N(C(=O)CCl)c1ccccc1` [Propachlor] had a collision cross section of 143.81 Å². In addition, the “reversed-phase LC retention time” value in data set [2] (setting [3]) worked out at 13 min.
In data set [1] (setting [3]), `CCCOC(=O)NCCCN(C)C` [Propamocarb] registered a collision cross section of 142.68 Å². Further, in data set [2] (setting [3]), the “reversed-phase LC retention time” value was 6.24 min.
With `CCC(=O)Nc1ccc(Cl)c(Cl)c1` [Propanil], the collision cross section in data set [1] (setting [3]) is given as 146.71 Å²; in data set [1] (setting [4]), 141.22 Å². Besides, the results for the “reversed-phase LC retention time” value in data set [2] (setting [3]) and in data set [2] (setting [4]) were 13.8 min and 14.1 min, respectively.
As for `CC(C)NCC(O)COc1cccc2ccccc12` (stereo unspecified) [Propanolol], the collision cross section in data set [1] (setting [3]) stood at 162.88 Å². Moreover, the “reversed-phase LC retention time” value in data set [2] (setting [3]) worked out at 11.3 min.
For `C#CCOS(=O)OC1CCCCC1Oc1ccc(C(C)(C)C)cc1` (stereo unspecified) [Propargite], in that order: 195.16 Å² and 17.4 min.
In data set [1] (setting [3]), `CCCC1COC(Cn2cncn2)(c2ccc(Cl)cc2Cl)O1` (stereo unspecified) [Propiconazole] returned a collision cross section of 179.72 Å². Besides, in data set [2] (setting [3]), the “reversed-phase LC retention time” value amounted to 15.7 min.

Values taken from the supplement of paper PMC12613149.
